Data reported in patent US20050009776A1, “Method of treating atrial fibrillation or atrial flutter” (Aderis Pharmaceuticals, Inc., priority 2003, published 2005).
Marks after values point to notes of the source that are not given here.

Tests used:
[1] = Example 5: pharmacokinetics and renal function markers of short i.v. infusions in healthy subjects; format: in vivo, human
Method: A study was designed to determine the dose dependent pharmacokinetics (PK) of short i.v. infusions of DTI-0009 in healthy subjects. Ten healthy young volunteer (ages 21 to 35 years old) received a 30-minute infusion of 1 μg/kg DTI-0009, or 5 μg/kg DTI-0009 or saline on three different occasions. The subjects were hydrated by a saline infusion ([…]) for one hour prior to and five hours after the start of the drug infusion. Serial plasma and urine samples were taken over 24 hours to measure DTI-0009 concentrations (as well as glucuronide, in urine only), creatinine, sodium and potassium by validated methods. The following renal function markers were assessed over time: urinary flow rate (UF), creatinine clearance (CLCrea), sodium clearance (CLNa) and potassium clearance (CLK). Additionally, noncompartmental PK analysis was performed and instantaneous renal clearance (CLren^inst) was estimated as a function of UF and CLcrea.

[2] = test system: adult patients with rapid atrial fibrillation (AF); experiment: Example 1: ventricular rate control in atrial fibrillation, 15-minute i.v. loading dose plus maintenance dose; format: in vivo, human
Method: A randomized, parallel-group, open label, dose-ranging study of DTI-0009 as a 15-minute intravenous loading dose (LD) followed by a maintenance dose (MD) infusion for up to 20 hours in adult patients with rapid atrial fibrillation (AF) (>120 bpm) was conducted. 78 patients were randomized to receive one of three LD regimens. If the ventricular rate (VR) was between 70 and 90 bpm 5 minutes after the end of the LD, then patients were randomized to one of the following three MDs of DTI-0009: 1.75 μg/kg/hr, 2.25 μg/kg/hr, or 2.75 μg/kg/hr. The MD was adjusted to keep the VR within the 70-90 bpm range.
63 of 69 patients completed the LD, 20 patients received a MD, and 18 patients completed at least 3 hours of MD. The VR remained below 100 bpm across all the dosing regimens during the 3-hour MD.

AV nodal conduction = experiment: Slowing of AV nodal conduction versus heart rate reduction; format: in vivo; conditions: guinea pig
Text: Therefore, DTI-0009 may be capable of terminating episodes of supraventricular arrythymias at doses that have little effect on normal heart rate or blood pressure.

For `CCNC(=O)[C@H]1O[C@@H](n2cnc3c(NC4CCCC4)ncnc32)[C@H](O)[C@@H]1O` [DTI-0009, N^6-cyclopentyl-5′-(N-ethyl)carboxamidoadenosine], the Vdss [1] was “approached body weight”, the “duration of inhibitory effects on CLCrea” value [1] was 1 to 2 h and the “duration of inhibitory effects on CLNa” value [1] was 3 to 4 h. For the same compound, the “time at which dose-dependent secondary effects (rebounds) in UF and natriuresis were apparent” value [1] was 5 to 10 h, the “CLnonren with increasing dose” value ([1]; 1 μg/kg vs 5 μg/kg) was “appeared unchanged” and the “CLren reduced with increasing dose” value ([1]; 1 μg/kg vs 5 μg/kg) was 29%. The “CLtot reduced with increasing dose” value ([1]; 1 μg/kg vs 5 μg/kg) was 25%, the “eliminated unchanged in urine” value ([1]; 30-minute i.v. infusion of 1 or 5 μg/kg) was “About 42%” and the “effect on diuresis, natriuresis and kaliuresis” value ([1]; initially, dose-dependent inhibition of CLcrea, CLNa and to a lesser extent CLK) was “transiently reduced diuresis, natriuresis and kaliuresis”. For the same compound, the “ventricular rate (VR)” value ([2]; LD 2.5 μg/kg, 5 min, Baseline 143) was 129^a bpm, the “ventricular rate (VR)” value ([2]; LD 2.5 μg/kg, 10 min, Baseline 143) was 117^a bpm and the “ventricular rate (VR)” value ([2]; LD 2.5 μg/kg, 15 min, Baseline 143) was 113^b bpm. The “ventricular rate (VR)” value ([2]; LD 2.5 μg/kg, 20 min, Baseline 143) was 115^b bpm, the “ventricular rate (VR)” value ([2]; LD 5.0 μg/kg, 5 min, Baseline 138) was 115^b bpm and the “ventricular rate (VR)” value ([2]; LD 5.0 μg/kg, 10 min, Baseline 138) was 104^b bpm. The “ventricular rate (VR)” value ([2]; LD 5.0 μg/kg, 15 min, Baseline 138) was 108^b bpm, the “ventricular rate (VR)” value ([2]; LD 5.0 μg/kg, 20 min, Baseline 138) was 111^b bpm and the “ventricular rate (VR)” value ([2]; LD 7.5 μg/kg, 5 min, Baseline 143) was 110^b,c bpm. The “ventricular rate (VR)” value ([2]; LD 7.5 μg/kg, 10 min, Baseline 143) was 99^b,c bpm, the “ventricular rate (VR)” value ([2]; LD 7.5 μg/kg, 15 min, Baseline 143) was 105^b bpm and the “ventricular rate (VR)” value ([2]; LD 7.5 μg/kg, 20 min, Baseline 143) was 106^b bpm. The “VR during maintenance dose” value ([2]; all dosing regimens, 3-hour MD) was “below 100 bpm”, the “systolic and diastolic blood pressures” value ([2]; during the LD) was “did not change significantly” and the “potency at slowing AV nodal conduction versus reducing heart rate” value (AV nodal conduction; in vivo) was “three times more potent at slowing AV nodal conduction than at reducing heart rate”. For the same compound, the “rate dependence of slowing AV nodal conduction” value (AV nodal conduction; rapid atrial pacing vs normal sinus rhythm) was “more potent at slowing AV nodal conduction during periods of rapid atrial pacing than during normal sinus rhythm”.
